Consider 71 compounds from patent US20100075957A1, “AMINODIHYDROTHIAZINE DERIVATIVES SUBSTITUTED WITH A CYCLIC GROUP” (SHIONOGI & CO., LTD., priority 2007, published 2010).

Structures are written as SMILES. Where two headings read alike, the source gives them in different places. Bounds are passed on as bounds.

This test has as its target T1, Recombinant human BACE-1 (Homo sapiens, UniProt P56817).
T1 construct: purchased R&D Systems
Nature of the test: Assay of β-secretase-inhibiting activity.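 Also: substrate is a peptide carrying biotin and europium cryptate, after the enzyme reaction, Streptavidin-XL665 is added and incubated 1 h at 30 °C before fluorescence reading.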 It counts as biochemical. Particulars: Recombinant human BACE-1 7.4 nM, substrate peptide 18 nM, pH 5.0, 30° C., 3 hours.

Where [1] appears, read: time-resolved fluorescence ratio 665/620, read-out: IC50 values (50% inhibitory concentration against the enzymatic activity).

T1 sequence (P56817 46-501): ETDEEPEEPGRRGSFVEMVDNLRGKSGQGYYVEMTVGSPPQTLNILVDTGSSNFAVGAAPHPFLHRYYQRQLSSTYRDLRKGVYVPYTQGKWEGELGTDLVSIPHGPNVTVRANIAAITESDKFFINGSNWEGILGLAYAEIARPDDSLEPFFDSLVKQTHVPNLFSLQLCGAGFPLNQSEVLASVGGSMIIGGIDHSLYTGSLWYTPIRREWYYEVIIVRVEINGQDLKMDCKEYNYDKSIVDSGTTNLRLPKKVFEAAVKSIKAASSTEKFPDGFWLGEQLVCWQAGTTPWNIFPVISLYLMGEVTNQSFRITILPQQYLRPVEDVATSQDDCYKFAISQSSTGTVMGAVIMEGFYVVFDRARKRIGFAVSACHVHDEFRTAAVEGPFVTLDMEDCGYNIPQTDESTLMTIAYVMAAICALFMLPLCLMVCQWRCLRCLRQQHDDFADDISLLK

Take `Cc1nc(C(=O)Nc2cncc([C@]3(C)CCSC(N)=N3)c2)c(C(F)(F)F)o1` [Compound 501]: the IC50 under setting [1] was no more than 1000 nM.

With `COc1cnc(C(=O)Nc2ccc(F)c([C@]3(C)CCSC(N)=N3)c2)c(N)n1` [Compound 603], under setting [1], the IC50 is no more than 1000 nM.

`C[C@@]1(c2cncc(NC(=O)c3ccc(Cl)s3)c2)CCSC(N)=N1` [Compound 504]: the IC50 under setting [1] was no more than 1000 nM.

Turning to `COCCOc1cnc(C(=O)Nc2ccc(F)c([C@]3(C)CC(C)(C)SC(N)=N3)c2)cn1` [Compound 601], the IC50 under setting [1] was no more than 1000 nM.

Regarding `CC1(C)C[C@@](C)(c2cc(NC(=O)c3ncccc3F)ccn2)N=C(N)S1` [Compound 655], the IC50 (Table 141, read-out: IC50) was found to be 10 nM.

As for `CSc1cnc(C(=O)Nc2cccc([C@]3(C)CCSC(N)=N3)c2)cn1` [Compound 69], under setting [1], the IC50 is no more than 1000 nM.

`C[C@@]1(c2cc(NC(=O)c3ccc(OC(F)F)cn3)ccc2F)CCSC(N)=N1` [Compound 135]: the IC50 under setting [1] was no more than 1000 nM.

Turning to `CN1N=C(C(=O)Nc2ccc(F)c([C@]3(C)CCSC(N)=N3)c2)CCC1=O` [Compound 475], the IC50 under setting [1] was no more than 1000 nM.

As for `Cc1cnc(C(=O)Nc2ccc(F)c([C@@]3(C)N=C(N)SCC3(F)F)c2)cn1` [Compound 662], the IC50 (Table 141, read-out: IC50) was 170 nM.

Regarding `CCOCCOc1cnc(C(=O)Nc2cccc([C@]3(C)CCSC(N)=N3)c2)cn1` [Compound 81], the IC50 under setting [1] was no more than 1000 nM.

For `C[C@@]1(c2cc(NC(=O)c3cnc(OCC4CC4)cn3)ccc2F)CCSC(N)=N1` [Compound 121], the IC50 under setting [1] was no more than 1000 nM.

Regarding `CC/C=C\COc1cnc(C(=O)Nc2cccc([C@]3(C)CCSC(N)=N3)c2)cn1` [Compound 108], under setting [1], the IC50 was no more than 1000 nM.

Consider `C#Cc1cn2cc(C(=O)Nc3ccnc([C@]4(C)CCSC(N)=N4)c3)ncc2n1` [Compound 700], for which the IC50 under setting [1] was no more than 1000 nM.

For the compound `Cc1ccoc1C(=O)Nc1ccc(F)c([C@]2(C)CCSC(N)=N2)c1` [Compound 518], the IC50 under setting [1] was no more than 1000 nM.

In the case of `C[C@@]1(c2cc(NC(=O)c3nccnc3C(N)=O)ccc2F)CCSC(N)=N1` [Compound 157], the IC50 under setting [1] is no more than 1000 nM.

As to `C[C@@]1(c2cncc(NC(=O)c3ccc(Cl)cn3)c2)CCSC(N)=N1` [Compound 152], the IC50 under setting [1] was no more than 1000 nM.

Turning to `C[C@@]1(c2cccc(NC(=O)c3nccnc3Cl)c2)CCSC(N)=N1` [Compound 59], the IC50 under setting [1] was no more than 1000 nM.

On to `C#CCOc1cnc(C(=O)Nc2cccc([C@]3(C)CCSC(N)=N3)c2)cn1` [Compound 103], for which, under setting [1], the IC50 was no more than 1000 nM.

In the case of `CC1(C)C[C@@](C)(c2cc(NC(=O)c3coc(Cl)n3)ccc2F)N=C(N)S1` [Compound 645], under “Table 140, read-out: IC50”, the IC50 was 200 nM.

Turning to `CC#CCOc1cnc(C(=O)Nc2cccc([C@]3(C)CCSC(N)=N3)c2)cn1` [Compound 91], the IC50 under setting [1] is no more than 1000 nM.

On to `CCOc1nccnc1C(=O)Nc1ccc(F)c([C@]2(C)CCSC(N)=N2)c1` [Compound 43], for which the IC50 under setting [1] is no more than 1000 nM.

With `Cc1cc(C(=O)Nc2ccc(F)c([C@]3(C)CCSC(N)=N3)c2)oc1C` [Compound 529], the IC50 under setting [1] is no more than 1000 nM.

As for `CC#CCOc1cnc(C(=O)Nc2cc([C@]3(C)CCSC(N)=N3)ccn2)cn1` [Compound 596], under setting [1], the IC50 was no more than 1000 nM.

Take `COCCCOc1ccc(C(=O)Nc2cccc([C@]3(C)CCSC(N)=N3)c2)nc1` [Compound 96]: the IC50 under setting [1] was no more than 1000 nM.

Turning to `CNCC#CCOc1ccc(C(=O)Nc2ccc(F)c([C@]3(C)CCSC(N)=N3)c2)nc1` [Compound 569], the IC50 under setting [1] is no more than 1000 nM.

As to `Cc1cc(C(=O)Nc2ccc(F)c([C@]3(C)CCSC(N)=N3)c2)no1` [Compound 20], under setting [1], the IC50 was no more than 1000 nM.

Consider `C[C@@]1(c2cc(NC(=O)c3cn4cc(C(F)(F)F)nc4cn3)ccc2F)CCSC(N)=N1` [Compound 651], for which, under setting [1], the IC50 is no more than 1000 nM.

With `C#Cc1cn2cc(C(=O)Nc3ccc(F)c([C@]4(C)CCSC(N)=N4)c3)ncc2n1` [Compound 698], the IC50 under setting [1] was no more than 1000 nM.

As for `C[C@@]1(c2cc(NC(=O)C3=NNC(=O)CC3)ccc2F)CCSC(N)=N1` [Compound 472], the IC50 under setting [1] is no more than 1000 nM.

Take `COCCOCCOc1cnc(C(=O)Nc2ccc(F)c([C@]3(C)CCSC(N)=N3)c2)cn1` [Compound 164]: for the setting “Table 139, read-out: IC50”, the IC50 is 80 nM.

Take `C[C@@]1(c2cccc(NC(=O)c3cnc(OCCF)cn3)c2)CCSC(N)=N1` [Compound 565]: under setting [1], the IC50 is no more than 1000 nM.

As to `CC1(c2cc(NC(=O)c3cnc(Cl)cn3)cc(F)c2F)CCSC(N)=N1` (stereo not shown) [Compound 144], under setting [1], the IC50 is no more than 1000 nM.

Regarding `CCOc1cnc(C(=O)Nc2ccc(F)c([C@]3(C)CCSC(N)=N3)c2)cn1` [Compound 134], under setting [1], the IC50 was no more than 1000 nM.

With `C=C(C)COc1cnc(C(=O)Nc2cccc([C@]3(C)CCSC(N)=N3)c2)cn1` [Compound 109], the IC50 (Table 139, read-out: IC50) worked out at 100 nM.

Regarding `COc1cnc(C(=O)Nc2ccnc([C@]3(C)CC(C)(C)SC(N)=N3)c2)cn1` [Compound 637], the IC50 under setting [1] is no more than 1000 nM.

Take `C[C@@]1(c2cc(NC(=O)c3cnc(-c4ccc[nH]4)cn3)ccc2F)CCSC(N)=N1` [Compound 509]: under setting [1], the IC50 is no more than 1000 nM.

On to `Cc1nc(C(=O)Nc2cnc(Cl)c([C@]3(C)CCSC(N)=N3)c2)co1` [Compound 584], for which, under setting [1], the IC50 was no more than 1000 nM.

`CCSc1cnc(C(=O)Nc2cccc([C@]3(C)CCSC(N)=N3)c2)cn1` [Compound 80]: the IC50 (Table 139, read-out: IC50) is 70 nM.

Consider `CCC/C=C/c1cnc(C(=O)Nc2ccc(F)c([C@]3(C)CCSC(N)=N3)c2)cn1` [Compound 124], for which the IC50 under setting [1] is no more than 1000 nM.

For the compound `Cn1ccnc1C(=O)Nc1ccc(F)c([C@]2(C)CCSC(N)=N2)c1` [Compound 553], the IC50 under setting [1] was no more than 1000 nM.

Regarding `CSCCOc1cnc(C(=O)Nc2cccc([C@]3(C)CCSC(N)=N3)c2)cn1` [Compound 76], the IC50 (Table 139, read-out: IC50) is 180 nM.

Consider `CC1(C)C[C@@](C)(c2cc(NC(=O)c3cnc(OCCF)cn3)ccn2)N=C(N)S1` [Compound 658], for which the IC50 under setting [1] is no more than 1000 nM.

As for `COc1cnc(C(=O)Nc2cnc(Cl)c([C@]3(C)CCSC(N)=N3)c2)cn1` [Compound 582], the IC50 under setting [1] is no more than 1000 nM.

For `Cc1cnc(C(=O)Nc2cccc([C@]3(C)CCSC(N)=N3)n2)cn1` [Compound 594], the IC50 (Table 140, read-out: IC50) is 170 nM.

With `COc1cnc(C(=O)Nc2ccnc([C@]3(C)CC(C)(C)SC(N)=N3)c2)c(N)n1` [Compound 688], the IC50 under setting [1] was no more than 1000 nM.

`C[C@@]1(c2cc(NC(=O)c3cccc(F)n3)ccc2F)CCSC(N)=N1` [Compound 587]: the IC50 under setting [1] is no more than 1000 nM.

For `C[C@@]1(c2cc(NC(=O)c3coc(CCl)n3)ccc2F)CCSC(N)=N1` [Compound 470], under setting [1], the IC50 is no more than 1000 nM.

For `C[C@@]1(c2cc(NC(=O)c3ccc(OCC#CCO)cn3)ccc2F)CCSC(N)=N1` [Compound 567], the IC50 under setting [1] was no more than 1000 nM.

With `COCCOc1cnc(C(=O)Nc2cccc(C3(C)CCSC(N)=N3)c2)cn1` (stereo not shown) [Compound 62], the IC50 (Table 139, read-out: IC50) was determined as 170 nM.

With `C[C@@]1(c2cc(NC(=O)c3cc4nccnc4s3)ccc2F)CCSC(N)=N1` [Compound 521], the IC50 (Table 140, read-out: IC50) is 180 nM.

In the case of `C[C@@]1(c2cc(NC(=O)c3ccc(OCCO)cn3)ccc2F)CCSC(N)=N1` [Compound 114], the IC50 (Table 139, read-out: IC50) turned out to be 160 nM.

For `Cc1cccnc1C(=O)Nc1ccc(F)c([C@]2(C)CCSC(N)=N2)c1` [Compound 503], under setting [1], the IC50 was no more than 1000 nM.

With `Cc1nc(C(=O)Nc2cnc(Cl)c([C@]3(C)CCSC(N)=N3)c2)c(C)o1` [Compound 586], the IC50 under setting [1] is no more than 1000 nM.

For `C[C@@]1(c2cc(NC(=O)c3coc(C(F)(F)F)n3)ccc2F)CCSC(N)=N1` [Compound 669], the IC50 (Table 141, read-out: IC50) was 10 nM.

As to `COCCOc1ccc(C(=O)Nc2cccc([C@]3(C)CCSC(N)=N3)c2)nc1` [Compound 95], the IC50 under setting [1] was no more than 1000 nM.

Take `COc1cnc(C(=O)Nc2ccnc([C@]3(C)CC(C)(C)SC(N)=N3)c2)c(C)c1` [Compound 685]: the IC50 under setting [1] was no more than 1000 nM.

`C/C=C/COc1ccc(C(=O)Nc2cccc([C@]3(C)CCSC(N)=N3)c2)nc1` [Compound 34]: the IC50 (Table 139, read-out: IC50) stood at 100 nM.

As for `C[C@@]1(c2cccc(NC(=O)c3ccc(OCc4ccccc4)cn3)c2)CCSC(N)=N1` [Compound 102], the IC50 under setting [1] is no more than 1000 nM.

For `CC(C)=CCOc1ccc(C(=O)Nc2cccc([C@]3(C)CCSC(N)=N3)c2)nc1` [Compound 98], the IC50 under setting [1] was no more than 1000 nM.

Regarding `C[C@@]1(c2cc(NC(=O)c3ccc(O)cn3)ccc2F)CCSC(N)=N1` [Compound 119], under setting [1], the IC50 is no more than 1000 nM.

Take `CC(C)COc1cnc(C(=O)Nc2cccc([C@]3(C)CCSC(N)=N3)c2)cn1` [Compound 87]: for the setting “Table 139, read-out: IC50”, the IC50 is 90 nM.

Take `Cc1ncc(C(=O)Nc2ccc(F)c([C@]3(C)CCSC(N)=N3)c2)s1` [Compound 508]: the IC50 reads like this: (Table 140, read-out: IC50) 40 nM; under setting [1], no more than 1000 nM.

Consider `CCCCOc1cnc(C(=O)Nc2cccc(C3(C)CCSC(N)=N3)c2)cn1` (stereo not shown) [Compound 71], for which, where the note is “Table 139, read-out: IC50”, the IC50 came out at 160 nM.

As for `C[C@@]1(c2cc(NC(=O)c3cnc(NCC(F)(F)F)cn3)ccc2F)CCSC(N)=N1` [Compound 702], the IC50 was 160 nM (Table 141, read-out: IC50) and no more than 1000 nM under setting [1].

On to `Cc1nc(C(=O)Nc2ccc(F)c([C@]3(C)CCSC(N)=N3)c2)cs1` [Compound 505], for which, where the note is “Table 140, read-out: IC50”, the IC50 worked out at 30 nM.

With `Cc1cnc(C(=O)Nc2ccc(F)c([C@]3(C)CC(C)(C)SC(N)=N3)c2)cn1` [Compound 606], under setting [1], the IC50 is no more than 1000 nM.

Take `COCCOc1cnc(C(=O)Nc2cccc([C@]3(C)CCSC(N)=N3)c2)cn1` [Compound 70]: under “Table 139, read-out: IC50”, the IC50 stood at 90 nM.

Take `C[C@@]1(c2cc(NC(=O)c3cnc(-c4ccoc4)cn3)ccc2F)CCSC(N)=N1` [Compound 158]: the IC50 under setting [1] was no more than 1000 nM.

In the case of `CC1(C)C[C@@](C)(c2cc(NC(=O)c3ncc(C(F)(F)F)cc3Cl)ccn2)N=C(N)S1` [Compound 656], the IC50 under setting [1] is no more than 1000 nM.

Regarding `COc1ncc(NC(=O)c2cnc(C)cn2)cc1[C@]1(C)CCSC(N)=N1` [Compound 680], the IC50 (Table 141, read-out: IC50) was 50 nM.

On to `Cc1cnc(C(=O)Nc2cc([C@]3(C)CCSC(N)=N3)c3oc(C)cc3c2)cn1` [Compound 468], for which the IC50 (Table 140, read-out: IC50) worked out at 20 nM.
